Target: T1, menin-MLL interaction (Homo sapiens, UniProt O00255)
T1 sequence (O00255 1-610): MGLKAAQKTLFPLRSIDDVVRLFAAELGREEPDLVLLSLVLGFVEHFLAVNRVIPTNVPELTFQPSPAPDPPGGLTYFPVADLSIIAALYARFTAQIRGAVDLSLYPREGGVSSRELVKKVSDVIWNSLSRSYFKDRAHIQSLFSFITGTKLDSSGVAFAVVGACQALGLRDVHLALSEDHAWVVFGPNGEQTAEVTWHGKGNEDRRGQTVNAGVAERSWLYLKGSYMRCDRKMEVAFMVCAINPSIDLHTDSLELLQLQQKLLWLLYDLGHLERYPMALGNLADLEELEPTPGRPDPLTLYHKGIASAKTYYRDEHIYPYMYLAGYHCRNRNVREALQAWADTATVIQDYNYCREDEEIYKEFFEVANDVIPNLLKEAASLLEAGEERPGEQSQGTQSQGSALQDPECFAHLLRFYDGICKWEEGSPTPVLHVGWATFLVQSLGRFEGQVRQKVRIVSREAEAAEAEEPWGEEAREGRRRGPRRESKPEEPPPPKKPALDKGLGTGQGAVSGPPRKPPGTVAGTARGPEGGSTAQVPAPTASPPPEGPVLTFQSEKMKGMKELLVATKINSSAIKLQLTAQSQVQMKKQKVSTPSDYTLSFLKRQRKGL
Experiment: biochemical
Description: Compounds that inhibit the interaction decrease the fluorescence anisotropy which is being used as a read-out for compound screening and for IC50 determination.

Row | SMILES | IC50
1 | Cc1c(CN2CCC(Nc3ncnc4sc(CC(F)(F)F)cc34)CC2)ccc2c1cc(C#N)n2CCN1CCN(C(=O)CCC2CCCCC2)CC1 [Compound 339] | < 100 nM
2 | Cc1c(CN2CC[C@@H](Nc3ncnc4sc(CC(F)(F)F)cc34)[C@H](NCCc3ccccc3)C2)ccc2c1cc(C#N)n2CC(N)=O [Compound 288] | < 100 nM
3 | COc1c(CN2CCC(Nc3ncnc4sc(CC(F)(F)F)cc34)CC2)ccc2[nH]c(C#N)cc12 [Compound 180, 4-methoxy-5-((4-((6-(2,2,2-trifluoroethyl)thieno[2,3-d]pyrimidin-4-yl)amino)piperidin-1-yl)methyl)-1H-indole-2-carbonitrile] | < 100 nM
4 | N#Cc1cc2cc(CN3CCC(Nc4ncnc5sc(CC(F)(F)F)cc45)CC3)ccc2n1Cc1cc(OCC2CC2)n[nH]1 [Compound 312] | < 100 nM
5 | N#Cc1cc2cc(CN3CCC(Nc4ncnc5sc(CC(F)(F)F)cc45)CC3)ccc2n1Cc1cc[nH]n1 [Compound 199] | < 100 nM
6 | CCS(=O)(=O)Nc1ccc(CC(=O)N2CCN(c3ncnc4sc(CC(F)(F)F)cc34)CC2)cc1 [Compound 49] | < 100 nM
7 | CC(C)CN(c1ccc(CC(=O)N2CCN(c3ncnc4sc(CC(F)(F)F)cc34)CC2)cc1)S(C)(=O)=O [Compound 101] | 500 to 2000 nM
8 | CS(=O)(=O)N1CCC[C@H]1CN[C@H]1CN(Cc2ccccc2)CC[C@@H]1Nc1ncnc2sc(CC(F)(F)F)cc12 [Compound 172] | 100 to 500 nM
9 | CS(=O)(=O)N(CC1CCCC1)c1ccc(CC(=O)N2CCN(c3ncnc4sc(CC(F)(F)F)cc34)CC2)cc1 [Compound 100] | 500 to 2000 nM
10 | Cc1c(CN2CCC(Nc3ncnc4sc(CC(F)(F)F)cc34)CC2)ccc2c1cc(C#N)n2CCN1CCN(S(=O)(=O)N(C)C)CC1 [Compound 375] | < 100 nM
11 | FC(F)(F)Cc1cc2c(N3CCN(c4nnc(CC(F)(F)F)s4)CC3)ncnc2s1 [Compound 8] | 100 to 500 nM
12 | CCCCN(CC1CCN(Cc2ccc(C#N)cc2)CC1)c1ncnc2sc(CC(F)(F)F)cc12 [Compound 264] | 500 to 2000 nM
13 | FC(F)(F)Cc1cc2c(N3CCN(c4nnc(CCCC5CCCCC5)s4)CC3)ncnc2s1 [Compound 17] | 500 to 2000 nM
14 | Cc1c(CN2CCC(Nc3ncnc4sc(CC(F)(F)F)cc34)CC2)c(O)cc2[nH]c(C#N)cc12 [Compound 384] | < 100 nM
15 | N#Cc1cc2cc(CN3CCC(Nc4ncnc5sc(CC(F)(F)F)cc45)CC3)ccc2n1C[C@@H](O)CO [Compound 187] | < 100 nM
16 | O=C(Cc1ccc(NS(=O)(=O)N2CCCCC2)cc1Cl)N1CCN(C2=NC=NC3SC(CC(F)(F)F)=CC23)CC1 (centres unmarked) [Compound 284] | < 100 nM
17 | FC(F)(F)Cc1cc2c(N3CCN(c4nnc(CCCc5ccccc5)s4)CC3)ncnc2s1 [Compound 41] | 500 to 2000 nM
18 | N#Cc1cc2cc(CN3CCC(Nc4ncnc5sc(CC(F)(F)F)cc45)CC3)ccc2n1CCn1cncn1 [Compound 209] | < 100 nM
19 | Cc1c(CN2CCC(Nc3ncnc4sc(CC(F)(F)F)cc34)CC2)ccc2c1cc(C#N)n2Cc1ncco1 [Compound 353] | < 100 nM
20 | O=c1[nH]c2ccc(CN3CCC(Nc4ncnc5sc(CC(F)(F)F)cc45)CC3)cc2[nH]1 [Compound 250] | 500 to 2000 nM
21 | N#Cc1cc2cc(CN3CCC(Nc4ncnc5sc(CC(F)(F)F)cc45)CC3)ccc2n1Cc1nc[nH]n1 [Compound 204] | < 100 nM
22 | O=C(Cc1ccc(F)cc1)N1CCN(c2ncnc3sc(CC(F)(F)F)cc23)CC1 [Compound 75] | 100 to 500 nM

Row | SMILES | IC50
23 | FC(F)(F)Cc1cc2c(NC3CCN(Cc4ccccc4C(F)(F)F)CC3)ncnc2s1 [Compound 148] | 500 to 2000 nM
24 | OCCC(F)(F)Cc1cc2c(NC3CCN(Cc4ccccc4)CC3)ncnc2s1 [Compound 138] | 500 to 2000 nM
25 | FC(F)(F)Cc1cc2c(NC3CCN(Cc4ccc(N5CCCCC5)cc4)CC3)ncnc2s1 [Compound 145] | 500 to 2000 nM
26 | CCCCC(O)(CO)Cn1c(C#N)cc2cc(CN3CCC(Nc4ncnc5sc(CC(F)(F)F)cc45)CC3)ccc21 (centres unmarked) [Compound 308] | < 100 nM
27 | N#Cc1cc2c(CO)c(CN3CCC(Nc4ncnc5sc(CC(F)(F)F)cc45)CC3)ccc2n1Cc1cn[nH]c1 [Compound 335] | < 100 nM
28 | N#Cc1cc2cc(CN3CCC(Nc4ncnc5sc(CC(F)(F)F)cc45)CC3)ccc2n1CC(N)=O [Compound 189] | < 100 nM
29 | FC(F)(F)c1nnc(N2CCN(c3ncnc4sc(C(F)(F)C(F)(F)F)cc34)CC2)s1 [Compound 24] | 500 to 2000 nM
30 | CC(=O)c1ccc(CN2CCC(CNc3ncnc4sc(CC(F)(F)F)cc34)CC2)cc1 [Compound 270] | 500 to 2000 nM
31 | N#Cc1nc2ccc(CN3CCC(Nc4ncnc5sc(CC(F)(F)F)cc45)CC3)cc2o1 [Compound 248] | 500 to 2000 nM
32 | NS(=O)(=O)Cc1ccc(CC(=O)N2C[C@@H]3CC[C@H]2CN3c2ncnc3sc(CC(F)(F)F)cc23)cc1 [Compound 97] | 500 to 2000 nM
33 | COc1ccc(CCCc2nnc(N3CCN(c4ncnc5sc(CC(F)(F)F)cc45)CC3)s2)cc1 [Compound 12] | 100 to 500 nM
34 | N#Cc1cc2cc(CN3CCC(Nc4ncnc5sc(CC(F)(F)F)cc45)CC3)ccc2n1CCO [Compound 179] | < 100 nM
35 | OCc1ccccc1CN1CCC(Nc2ncnc3sc(CC(F)(F)F)cc23)CC1 [Compound 110] | 100 to 500 nM
36 | N#Cc1cc2cc(CN3CCC(Nc4ncnc5sc(CC(F)(F)F)cc45)CC3)ccc2n1CCN [Compound 186] | < 100 nM
37 | O=C(CCCc1ccccc1)N1CCN(c2ncnc3sc(CC(F)(F)F)cc23)CC1 [Compound 93] | 500 to 2000 nM
38 | COc1ccccc1CC(=O)N1CCN(c2ncnc3sc(CC(F)(F)F)cc23)CC1 [Compound 94] | 500 to 2000 nM
39 | N#Cc1cc2cc(CN3CCC(Nc4ncnc5sc(CC(F)(F)F)cc45)CC3)ccc2n1CCN1CCNCC1 [Compound 393] | < 100 nM
40 | N#Cc1cc2cc(CN3CCC(Nc4c(COCC5CCCC5)cnc5sc(CC(F)(F)F)cc45)CC3)ccc2[nH]1 [Compound 421] | 500 to 2000 nM
41 | CO[C@H](CO)Cn1c(C#N)cc2cc(CN3CCC(Nc4ncnc5sc(CC(F)(F)F)cc45)CC3)ccc21 [Compound 191] | < 100 nM
42 | Cc1c(CN2CCC(Nc3ncnc4sc(CC(F)(F)F)cc34)CC2)ccc2c1cc(C#N)n2CCN1CCN(C(C)C)CC1 [Compound 357] | < 100 nM
43 | COCCOCCn1nc(Cn2c(C#N)cc3cc(CN4CCC(Nc5ncnc6sc(CC(F)(F)F)cc56)CC4)ccc32)cc1C [Compound 411] | 100 to 500 nM
44 | Cc1c(CN2CCC(Nc3ncnc4sc(CC(F)(F)F)cc34)CC2)ccc2c1cc(C#N)n2Cc1nccs1 [Compound 326] | < 100 nM

Row | SMILES | IC50
45 | OCc1c(CC(F)(F)F)sc2ncnc(NC3CCN(Cc4ccccc4)CC3)c12 [Compound 112] | 100 to 500 nM
46 | N#Cc1cc2c(CO)c(CN3CCC(Nc4ncnc5sc(CC(F)(F)F)cc45)CC3)ccc2n1CC(N)=O [Compound 325] | < 100 nM
47 | CCn1c(C#N)cc2cc(CN3CCC(Nc4ncnc5sc(CC(F)(F)F)cc45)CC3)ccc21 [Compound 177] | < 100 nM
48 | Cc1c(CN2CCC(Nc3ncnc4sc(CC(F)(F)F)cc34)CC2)ccc2c1cc(C#N)n2CCN1CCN(C(=O)CCc2ccccc2)CC1 [Compound 341] | < 100 nM
49 | O=C(Cc1ccccc1O)N1CCN(c2ncnc3sc(CC(F)(F)F)cc23)CC1 [Compound 68] | 100 to 500 nM
50 | Cc1c(CN2CCC(Nc3ncnc4sc(CC(F)(F)F)cc34)CC2)ccc2c1cc(C#N)n2CC1CCC(=O)N1 (centres unmarked) [Compound 427] | < 100 nM
51 | N#Cc1cc2c(CO)c(CN3CCC(Nc4ncnc5sc(CC(F)(F)F)cc45)CC3)ccc2n1CCO [Compound 321] | < 100 nM
52 | OCCCN(c1ncnc2sc(CC(F)(F)F)cc12)C1CCN(Cc2ccccc2)CC1 [Compound 127] | 100 to 500 nM
53 | NS(=O)(=O)c1ccc(CN2CCC(Nc3ncnc4sc(CC(F)(F)F)cc34)CC2)cc1 [Compound 156] | 500 to 2000 nM
54 | FC(F)(F)Cc1cc2c(NCC3CCN(Cc4ccc(N5CCOCC5)cc4Cl)CC3)ncnc2s1 [Compound 259] | 100 to 500 nM
55 | N#Cc1ccc(CN2CCC(Nc3ncnc4sc(CC(F)(F)F)cc34)CC2)cc1 [Compound 144] | 500 to 2000 nM
56 | N#C[C@H]1C[C@@H]1c1ccc(CN2CCC(Nc3ncnc4sc(CC(F)(F)F)cc34)CC2)cc1 [Compound 106] | < 100 nM
57 | O=C(Cc1ccc(NS(=O)(=O)C2CC2)cc1Cl)N1CCN(C2=NC=NC3SC(CC(F)(F)F)=CC23)CC1 (centres unmarked) [Compound 285] | < 100 nM
58 | Cc1nn[nH]c1Cn1c(C#N)cc2c(C)c(CN3CCC(Nc4ncnc5sc(CC(F)(F)F)cc45)CC3)ccc21 [Compound 327] | < 100 nM
59 | O=C(Cc1ccccc1F)N1CCN(c2ncnc3sc(CC(F)(F)F)cc23)CC1 [Compound 72] | 100 to 500 nM
60 | N#Cc1cc2cc(CN3CCC(Nc4ncnc5sc(CC(F)(F)F)cc45)CC3)ccc2n1CCCC(F)(F)F [Compound 223] | < 100 nM
61 | N#Cc1cc2cc(CN3CCC(Nc4ncnc5sc(CC(F)(F)F)cc45)CC3)ccc2n1CC(CO)OCC1CCCCC1 (centres unmarked) [Compound 320] | < 100 nM
62 | Cc1c(CN2CCC(Nc3ncnc4sc(CC(F)(F)F)cc34)CC2)ccc2c1cc(C#N)n2Cc1cnc[nH]1 [Compound 349] | < 100 nM
63 | N#CCc1ccc(CC(=O)N2CCN(c3ncnc4sc(CC(F)(F)F)cc34)CC2)cc1 [Compound 77] | 100 to 500 nM
64 | CC(C)c1cc2c(N3CCN(c4nnc(C(F)(F)F)s4)CC3)ncnc2s1 [Compound 32] | 500 to 2000 nM
65 | N#Cc1cc2c(F)c(CN3CCC(Nc4ncnc5sc(CC(F)(F)F)cc45)CC3)ccc2n1CC(N)=O [Compound 205] | < 100 nM
